The values below come from patent US20080269326A1, “Use of 1-Phenyl-3-Dimethylamino-propane Compounds for Treating Neuropathic Pain” (GRUENENTHAL GmbH, priority 2007, published 2008).

The term ED50 denotes the dose at which the effect has come halfway, by size or by number of responders.

SMILES strings stand for the structures.

Assay [1] relates to cold allodynia in Bennett animals. The assay can be described thus: Bennett model (chronic constriction injury), cold allodynia on 4° C. cold metal plate. It counts as in vivo, rat. As to the method: The effectiveness in treating neuropathic pain was investigated in the Bennett model (chronic constriction injury; Bennett and Xie, 1988, Pain 33: 87-107).
Sprague-Dawley rats weighing 140-160 g are provided with four loose ligatures of the right sciatic nerve under nembutal narcosis. The animals develop a hypersensitivity in the paw innervated by the damaged nerve, which after a healing phase of one week is quantified over about four weeks by means of a 4° C. cold metal plate (cold allodynia). The animals are observed for two minutes on this plate and the number of retractive movements of the damaged paw are measured. The effect of the substance is determined with reference to the base value before application of the substance, at four different times over a period of one hour(15, 30, 45 and 60 minutes after application) and the resultant area under the curve (AUD) as well as the inhibition of cold allodynia at the individual measurement points is expressed in percent effect with reference to the vehicle control (AUD) and to the initial value (individual measurement points). The cohort size is n=10.

In assay [2] the test system is tactile allodynia in Chung animals. The assay can be described thus: Chung model (spinal nerve ligature), tactile allodynia, electronic von Frey. It counts as in vivo. The conditions noted are these: Rattus norvegicus, ip, 0.5 h; rats, i.p., 30 minutes after administration. As to the method: Spinal nerve ligatures according to Kim & Chung (1992 Pain 50, 355-363) were applied to the left L5/L6 spinal nerves of male Spraque-Dawley rats. Four to six days after the operation the tactile threshold baseline (withdrawal threshold) was measured on the ipsilateral and contralateral rear paw by an electronic von Frey anaesthesiometer (IITC Life Science, USA). After the test and measurement of the baseline, morphine, gabapentin and some of the aforementioned compounds used according to the invention were administered. The tactile withdrawal thresholds were measured 30 minutes after the administration. The results are expressed as ED50 and % maximal possible effect (% MPE) on the ipsilateral side, in which the baseline is taken as 0% and the withdrawal threshold of a control group is taken as 100% MPE.

Assay [3] deals with mechanical hyperalgesia in diabetic animals. The assay can be described thus: Streptozotocin diabetic neuropathy, mechanical hyperalgesia (Randall and Sellito). It counts as in vivo, rat. The conditions noted are these: diabetic rats. As to the method: Male Sprague-Dawley rats weighing 160-180 g received an intra-peritoneal injection of streptozotocin (75 mg/kg body weight) dissolved in pH 4.6 citrate buffer. One week later diabetic animals were identified by measuring the blood glucose level, and those with a blood glucose level of ≧17 mM were included in the study. Three and four weeks after administration of streptozotocin the mechanical reaction threshold was measured in diabetic animals by the method of Randall and Sellito (1957 Arch. Int. Pharmacody. […]:409-419) before (pre-test) and at various times after administration of the test substance or vehicle (post-test). […] The maximum pressure exerted on the rear paw was 250 g. The end point of the mechanical reaction threshold in grams was determined based on the reaction of the animal (withdrawal of the rear paw, vocalisation or evasive reaction). The size of the cohort in the individual dose stages was n=10. The maximum possible response in percent (% MPE=% of maximum possible effect) was calculated according to the formula:
% MPE=(post-test−pre-test)/(250−pre-test)×100.
ED50 values (dose at which 50% maximum inhibition occurred) were determined by regression analysis from the % MPE values at the time of the maximum effect.

`CC[C@@H](c1cccc(O)c1)[C@@H](C)CN(C)C` [Compound 9, (1R,2R)-3-(3-dimethylamino-1-ethyl-2-methylpropyl)-phenol]: the “Cold allodynia (% AUD) Naïve animals” value in assay [1] (10 mg/kg i.p.) is listed as 49.3 % AUD; in assay [1] (21.5 mg/kg i.p.) it was 53.4 % AUD. Moreover, the ED50 in assay [1] (Rattus norvegicus, ip, rats) was found to be 13 mg/kg; in assay [2], 8.15 mg/kg; in assay [3] (Rattus norvegicus, ip, i.p., read-out: Mechanical hyperalgesia ED50 (95% confidence region)), 8.9 mg/kg. For the same compound, the “Mechanical hyperalgesia Maximum effect in % MPE” value in assay [3] (31.6 mg/kg i.p.) was 100% (31.6 mg/kg) % MPE. In addition, the “maximum effect compared among the tested compounds” value in assay [3] (i.p.) is reported as “highest maximum effect”.
